Legend:
[1] = LC/MS/MS analysis of DON in plasma and VM-M3 brain tumour tissue; assay type: in vivo, mouse (VM/Dk); conditions: for concentration of DON in VM-M3 tumour tissue, mice fed KD-R versus mice fed SD-UR: 60 min after i.p. DON 1.0 mg/kg
Procedure: FIGS. 4A and 4B. Restricted Ketogenic diet increases DON delivery to the VM-M3 GBM. The content of DON in the VM-M3 brain tumour tissue was quantified using two LC/MS/MS procedures, as described in Methods. The brain tissue was analyzed for DON content 60 minutes after i.p. DON injection. The values in experiment a are presented as mean of two independent samples, while the values in experiment b are presented as the mean±SEM (n=3). The difference between the two groups in experiment b was significant (P<0.01).
Plasma and brain tissues were prepared for DON analysis one hour after systemic DON injection, as described in Methods below. […] In another independent experiment, using a similar analytical system, the concentration of DON in the VM-M3 tumour tissue was about 3-fold greater in mice fed the KD-R than in mice fed the SD-UR (FIG. 4B). In both methods of measurement, DON delivery to the brain was greater in the mice fed the KD-R than in the mice fed the SD-UR (FIGS. 4A and 4B). DON was detected in plasma 10 min after i.p. injection (data not shown) and was detected in brain tissue 60 min following injection. These findings indicate that the KD-R facilitated delivery of DON to the VM-M3 tumour tissue.
Two independent LC-MS instruments and procedures were used to measure the amount of DON in the blood and in the VM-M3 tumour tissues. This was done to validate the accuracy of the procedures. A Triple quad method (Agilent 6460) was used to analyze DON in the first procedure (FIG. 4A). Mice were injected with 1.0 mg/kg of DON at either 10 min or 60 min before collection of the brains and blood. The brains were immediately flash frozen. Blood samples were collected before removal of the brain. 3N HCl+n-butanol (250 μl) was added to 50 μl of plasma, vortexed and then centrifuged at 16,000×g for 5 min to precipitate proteins. A 200 μl aliquot of the supernatant was transferred to a 1.5 ml tube and incubated at 60° C. for 30 min in a shaking water bath to perform the DON derivatization reaction. For the brain tissue, 5 μl of n-butanol containing 3N HCl was added per milligram tissue. The tissue sample was then homogenized with a glass pestle and was then vortexed and centrifuged, and prepared similarly to the plasma samples. Standard solutions were prepared by serial dilution to generate concentrations from 10 nM to 100 μM. DON was added to untreated mouse plasma or brain tissue to generate an internal standard curve. A high-resolution LC-MS QToF method (Agilent 6550) was used to analyze DON in the second procedure (FIG. 4B). Mice were injected with DON as above. Pre-weighed frozen brain tissue was transferred to a tube containing ceramic beads (Omni tubes). 3M HCl+butanol was added at a concentration of 5 μI/mg of tissue. […]

[2] = shown previously (ref 33); cited from earlier work
VM-M3 tumour cells = assay: VM-M3 brain tumour histology (H&E) and Ki-67 staining; assay type: in vivo, mouse (VM/Dk); conditions: compared with SD-UR brains
Description: VM/Dk mice were implanted with VM-M3 cells orthotopically in the brain on day 0 as described in the previous figures. The brains were fixed in formalin for histology, processed, and stained as described in Methods. Histological analysis (H&E) was used to validate the presence of tumour cells, FIG. 3A. […] DAPI is used for the Ki-67 negative nuclear stain.
Brain tumour samples were fixed in 10% neutral buffered formalin (Sigma) and embedded in paraffin. The brain tumour samples were sectioned at 5 μm, were stained with haematoxylin and eosin (H&E) at the Harvard University Rodent Histopathology Core Facility (Boston, Mass.), and were examined by light microscopy using either a Zeiss Axioplan 2 or Nikon SMZ1500 light microscope. Images were acquired using SPOT Imaging Solutions (Diagnostic Instruments, Inc.) cameras and software. All histological sections were evaluated at the Harvard University Rodent Histopathology Core Facility.
For immunohistochemistry, the tissue sections from untreated and treated tumour bearing mice were deparaffinized, rehydrated, and washed. The tissue sections were then heat treated (95° C.) in antigen unmasking solution (Vector Laboratories, Burlingame, Calif.) for 30 min. […] Nuclei were stained using NucBlue (Invitrogen). Images were captured by the EVOS FL Cell Imaging System fluorescent microscope. […]

[N-]=[N+]=CC(=O)CC[C@H](N)C(=O)O [DON, 6-diazo-5-oxo-L-norleucine]
DON in plasma ([1]; 10 min after i.p. injection): detected | DON in brain tissue ([1]; 60 min following injection): detected | concentration of DON in VM-M3 tumour tissue, mice fed KD-R versus mice fed SD-UR ([1]; first procedure (FIG. 4A)): about 2 fold | concentration of DON in VM-M3 tumour tissue, mice fed KD-R versus mice fed SD-UR ([1]; independent experiment (FIG. 4B)): about 3 fold | toxic effects in C57BL/6J mice [2]: no toxic effects | histology (H&E) of primary tumour (VM-M3 tumour cells): significant area of dead cells

Reference: patent US20200316096A1, “COMBINATION OF DIET AND DRUG THERAPY FOR TREATING CANCER” (Trustees of Boston College, priority 2019, published 2020)
